Holding throughout (assay): NCI tumour cell line growth inhibition, 48 h
For assay [1], the system named is BT-549 breast.
The test system of assay [2] is DU-145 prostate.
Assay [3] deals with HS 578T breast.
Assay [4] concerns MDA-MB-231 breast.
Assay [5] concerns MDA-MB-435.
Assay [6] has as its system PC-3 prostate.
Assay [7] concerns P388/ADR leukemia.
In assay [8] the test system is SN12K1 renal.

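Values below derive from 48-hour exposures of cells grown in 96-well plates, with endpoints linearly interpolated between the two concentrations bracketing the appropriate inhibition level. At the GI50, growth is halved. At the TGI there is no net growth.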

For `c1ccc(C2=NN[C@H](c3cn(-c4ccccc4)nc3-c3ccccc3)C2)cc1`, the GI50 in assay [1] is 5.9 µM; in assay [2], 71.8 µM; in assay [3] it was 2.63 µM; in assay [4] it was 3.86 µM; in assay [5], greater than 100 µM; in assay [6], 6.22 µM. Also, the TGI is greater than 100 µM in assay [1]; greater than 100 µM in assay [2]; 7.45 µM in assay [3]; greater than 100 µM in assay [4]; greater than 100 µM in assay [5]; greater than 100 µM in assay [6].

On to `Oc1c2c(c3c4c1N=CC=4CCN=3)C1(C=C(Br)C(O)C(Br)=C1)CCN2` (centres undefined), for which the values for the TGI in assay [7] and in assay [8] were 4.81 µM and 10.7 µM, respectively.

For the origin of these results see PubChem BioAssay (NCI).
